Test results as given in patent US7579439B2, “Modulation of IL-2- and IL-15-mediated T cell responses” (Beth Israel Deaconess Medical Center, Inc., priority 2000, dated 2009).

How the values were obtained:
[1] = test system: T cells at the second cell division in vivo; test: In vitro proliferation of sorted in vivo dividing T cells (3H-TdR uptake); assay type: cell-based, mice; settings: IL-2 in doses as high as; IL-15 5 ng/ml; 48 hours
Description: CFSE-labeled lymphocytes were stimulated in vivo for three days and cell division was analyzed by examining the CFSE profile. T cells in the second cell division were sorted and cells (1×10^4) were cultured in vitro with IL-2 or IL-15 for two days. Cellular proliferation was determined by ^3H-TdR uptake. The results are presented as the mean CPM±SD of triplicate assays.
Cell sorting and in vitro proliferation assays were carried out as follows. CFSE-labeled cells were prepared from irradiated allogeneic hosts three days after intravenous injection of labeled cells, and cell proliferation in vivo was identified by analysis of the cells' CFSE profile. The second cell division was selected, gated, and sorted with FACS Vantage™. Cells (1×10^4/ml) were resuspended in RPMI 1640 medium with 10% FCS and 1% penicillin and streptomycin, and stimulated with IL-2 (40 μ/ml to 500 μ/ml) or IL-15 (5 ng/ml) for 48 hours. Cells were pulsed with 1 mCi 3H-TdR (Amersham, Boston, Mass.) for 16 hours and ^3H-TdR uptake was determined by scintillation counting (Beckman Instrument, Columbia, Md.).

[2] = molecular target: T1, human IL-15Rα subunit (Homo sapiens, UniProt Q13261); test: Cross-linking of [32P]-FLAG-HMK-IL-15 to PHA-activated PBMCs (DSS, SDS-PAGE autoradiography); assay type: binding; settings: cross-linked with DSS; band lost with molar excess of hIL-15
T1 construct: endogenous in cells
Description: The purified FLAG-HMK-IL-15 fusion protein was tested to determine whether it interacts with cell surface IL-15 receptors. As described above, [^32P]-FLAG-HMK-IL-15 was added to cultures of PBMCs that were activated by a mitogen, PHA. In order to permanently bind interactive proteins to one another, the chemical cross-linker disuccinimidyl suberate (DSS) was added. The cells were washed, lysed, centrifuged, and detergent-soluble proteins were separated by SDS-PAGE. […] The identity of this band as the IL-15Rα subunit was confirmed by cross-linking experiments conducted in the presence of a molar excess of hIL-15.

[3] = test system: PHA-activated human PBMCs; test: [3H]-TdR incorporation assay, PHA-activated PBMCs; assay type: cell-based
Description: (§1) In the next series of experiments, the FLAG-HMK-IL-15 fusion protein was tested to determine whether it could function as a biologically active growth factor.

[4] = test system: IL-2Rγ+ BAF-BO3 cell transfectants that express the IL-2Rβ subunit; test: BAF-BO3 cell proliferation assay (IL-2Rβ transfectants); assay type: cell-based
Description: as §1

[5] = test system: parental BAF-BO3 cells transfected with a vector lacking IL-2Rβ chain sequences; test: BAF-BO3 cell proliferation assay (parental cells, vector lacking IL-2Rβ); assay type: cell-based; settings: parental BAF-BO3 cells lacking IL-2Rβ
Description: In the next series of experiments, the FLAG-HMK-IL-15 fusion protein was tested to determine whether it could function as a biologically active growth factor. […] Thus, FLAG-HMK-IL-15 is a biologically active growth factor that requires expression of IL-2Rβ chains upon target cells in order to stimulate cellular proliferation.

[6] = test system: IL-15 binding sites on PHA-activated human PBMCs; test: Cytofluorometric analysis of binding to PBMCs (anti-FLAG biotinylated Ab, streptavidin-RED670); settings: flow cytometry
Description: The FLAG-HMK-IL-15 fusion protein, biotinylated anti-FLAG antibody, and streptavidin-RED670 were employed to detect expression of IL-15 binding sites on human PBMCs by cytofluorometric analysis. The PBMCs tested were either freshly isolated or PHA-activated. These cells were washed and incubated with either medium alone or FLAG-HMK-IL-15 followed by anti-FLAG biotinylated Ab and streptavidin-RED670. The stained cells were analyzed by flow cytometry. […] Both activated CD4^+ and CD8^+ cells express IL-15α chains. Activation induced IL-15Rα chains were also detected on CD14^+ (monocyte/macrophage) cells and CD16^+ (natural killer) cells.
PHA-activated PBMCs were washed and incubated with medium alone, or with the FLAG-HMK-IL-15 double mutant. The cells were then incubated with an anti-FLAG biotinylated antibody and stained with streptavidin conjugated to RED670. The stained cells were analyzed by flow cytometry.

[7] = test system: leukemic cell lines MOLT-14, YT, HuT-102, 2A and 2B; test: FACS analysis of leukemic cell lines stained with FLAG-HMK-IL-15; assay type: binding; settings: flow cytometry
Description: The cells treated were obtained from the leukemic cell lines MOLT-14, YT, HuT-102, and from cell lines currently being established at Beth Israel Hospital (Boston, Mass.), and named 2A and 2B. The cultured cells were washed and incubated with either medium alone or with medium containing the FLAG-HMK-IL-15 wild-type polypeptide. The cells were then incubated with the biotinylated anti-FLAG antibody and stained with RED670-conjugated streptavidin. The stained cells were analyzed by flow cytometry.

T1 sequence (Q13261 31-267): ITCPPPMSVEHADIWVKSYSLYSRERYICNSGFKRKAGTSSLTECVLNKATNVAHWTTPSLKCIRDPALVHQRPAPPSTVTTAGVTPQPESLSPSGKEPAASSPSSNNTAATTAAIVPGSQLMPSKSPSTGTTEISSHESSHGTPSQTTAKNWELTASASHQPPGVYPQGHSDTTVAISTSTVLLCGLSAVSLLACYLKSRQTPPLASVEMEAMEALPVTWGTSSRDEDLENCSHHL

Substance	T cell proliferation by 3H-TdR uptake [1]	binding to the IL-15Rα subunit on the surface of mitogen-activated PBMCs [2]	stimulation of cell proliferation [3]	stimulation of proliferation ([4]; BAF-BO3 transfectants expressing IL-2Rβ)	stimulation of proliferation [5]	binding to PHA activated PBMCs [6]	binding to leukemia cells [7]	inhibition of BAF-BO3 proliferation ([4]; 30 μl versus 20 μL of approximately 50 μg/ml)
IL-15: recombinant human IL-15	stimulated vigorous cell proliferation	–	–	–	–	–	–	–
FLAG-HMK-IL-15: IL-15 polypeptide having an N-terminus covalently bound to the 18 amino acid FLAG-HMK-sequence	–	site specific binding	proliferate in response to	stimulates proliferation	does not, however, stimulate the proliferation	blocked by a molar excess of rIL-15	bind leukemia cells was shown	–
FLAG-HMK-IL-15 double mutant: human IL-15 protein bearing a double mutation (Q149D; Q156D), FLAG-HMK tagged	–	–	–	–	–	bind PHA activated human PBMCs was demonstrated	–	inhibit BAF-BO3 proliferation in a dose-dependent manner
